Earlier results on 1 compound are cited in patent US8258301B2, “Urotensin II receptor antagonists” (Boehringer Ingelheim International GmbH, priority 2007, dated 2012).

For the series the following is noted: patients, clinical trial.

For `Cc1cc(NC(=O)NCCN2CCC(O)(Cc3ccccc3)CC2)c2ccccc2n1` [Palosuran], the “modulate the 24-hour urinary albumin excretion rate” value is 24.3%.
